Earlier results, collected in paper PMC12866175 (European journal of nuclear medicine and molecular imaging, 2021).

Key:
NETs = settings: cited from earlier work
tumor = settings: human, in vivo; cited from earlier work

Substance: [^177Lu]Lu-DOTA-TATE
- patients achieving stable disease (NETs): 26–55%
- patients treatment refractory (NETs): 18–32%
- time after starting treatment within which half progress (NETs): 2 to 3 years
- tumor residence time compared with [^177Lu]Lu-DOTATOC (tumor): greater tumor residence time
